From patent US12053529B2, “Amino-reactive positively charged ATRP initiators that maintain their positive charge during synthesis of biomacro-initiators” (Carnegie Mellon University, priority 2018, dated 2024)

Key:
[1] = system: avidin, positive initiator (+); assay: biotin binding rate, avidin-positive initiator
Excerpt: (§1) Avidin: Avidin (Avi) is a tetrameric protein (homo-4-mer) that is approximately 66 kDa in its tetrameric form and is found in the egg whites of birds, reptiles, and amphibians. Its highly specific activity arises from binding strongly to biotin and this binding event is one of the strongest noncovalent interactions known, making avidin extremely useful for biochemical assays/probes and protein purification chemistries. Each sub-unit of avidin can bind to one biotin molecule. In agreement with CT and Lyz, the number of initiator modifications when using the positive initiator was less than that achieved with neutral initiator (4.3 versus 7.9). The activities of avidin samples were measured next using two different techniques (TABLE 6). Biotin binding rates were determined kinetically and total equilibrium biotin binding were determined spectophotometrically using 4′-hydroxyazobenzene-2-carboxylic acid (HABA) dye. Since the avidin-biotin binding is so strong, the displacement of HABA by biotin in the active site can be measured and the amount of bound biotin can be determined by the decrease in absorbance at 500 nm. The biotin binding rate of Avi-neutral initiator was decreased to 0.48 s^−1 from 105.2 s^−1 for native avidin.

avidin, native = assay: biotin binding rate, native avidin
Excerpt: as §1

[2] = system: avidin, positive initiator (+)-pCBMA; assay: biotin binding rate, avidin (+)-pCBMA
Excerpt: as §1

[3] = system: avidin, neutral initiator (N)-pCBMA; assay: biotin binding rate, avidin (N)-pCBMA
Excerpt: as §1

[4] = system: Uricase from Candida sp., neutral initiator (N); assay: Michaelis-Menten kinetics, uric acid oxidation, uricase-neutral initiator; assay type: biochemical; details: pH 8.5, 37° C.
Description: (§2) CT and Lysozyme were used as received. AChE and Uricase were dialyzed in 25 mM sodium phosphate (pH 7.0) using a 25 kDa molecular weight cutoff dialysis tube in a refrigerator for 24 hours and then lyophilized. Copper (II) chloride, sodium ascorbate, 1,1,4,7,10,10-hexamethyltriethylenetetramine (HMTETA), 2-bromo-2-methylpropionyl bromide, 3-(dimethylamino)-1-propylamine, N,N′-diisopropylcarbodimine, fluorescamine, acetylthiocholine iodide, 5,5′-dithiobis(2-nitrobenzoic acid) (DTNB) were purchased from Sigma Aldrich. 4-bromobutyric acid and N-hydroxysuccinimide were purchased from TCI USA (Portland, OR). Micro BCA assay kit was purchased from Thermo Fisher Scientific.
(§3) Uricase: 200 μL of NHS-functionalized ATRP initiator solution in DMSO (100 μmol, 34 mg for neutral and 52 mg for positive initiator, respectively) was added to Uricase solution (20 mg of […] Uricase in 20 mL of 100 mM phosphate (pH 7.0)) and stirred at room temperature for 2 hours. Uricase-initiator conjugates were dialyzed in 25 mM sodium phosphate (pH 7.0) using a 25 kDa molecular cutoff dialysis tube in a refrigerator for 24 hours and then lyophilized. The concentration of Uricase initiator conjugates was determined using a Micro BCA Assay Kit (ThermoFisher Scientific).
(§4) Uricase: Uric acid (0-400 μL of 300 μM in 50 mM sodium tetraborate (pH 8.5)) was mixed with 50 mM sodium phosphate ([…], pH 8.5). Native, initiator and polymer conjugate solution (10 μL, 20 μM of Uricase) was added to the substrate solution. The initial rate was monitored by recording the decreasing in absorbance as 290 nm using an UV-VIS absorbance spectrometer with a temperature controlled cell folder at 37° C. Michaelis-Menten parameters were determined by nonlinear curve fitting of initial rate versus substrate concentration plots using Prism 7 software (GraphPad).

[5] = system: Uricase from Candida sp., positive initiator (+)-pCBMA; assay: Michaelis-Menten kinetics, uric acid oxidation, uricase (+)-pCBMA; assay type: biochemical; details: pH 8.5, 37° C.
Description: as §2
as §3, with “Uricase-initiator conjugates were dialyzed in 25 mM sodium phosphate (pH 7.0) using a 25 kDa molecular cutoff dialysis tube in a refrigerator for 24 hours and then lyophilized.” left out
(§5) CT-pCBMA and pSMA conjugate synthesis: A solution of monomer (230 mg for CBMA and 246 mg for SMA, 1.0 mmol respectively) and CT-initiator (23 mg for neutral and 25 mg for positive initiator, 10 μmol of initiator) in 100 mM sodium phosphate (20 mL, pH 7) was sealed and bubbled with nitrogen gas in an ice bath for 30 minutes. […] Conjugate CT content was determined by BCA assay as described elsewhere (Lee et al. 2005, supra). […]
as §4, with “Native, initiator and polymer conjugate solution (10 μL, 20 μM of Uricase) was added to the substrate solution.” left out

[6] = system: Uricase from Candida sp., positive initiator (+); assay: Michaelis-Menten kinetics, uric acid oxidation, uricase-positive initiator; assay type: biochemical; details: pH 8.5, 37° C.
Description: as §2, §3, §4

[7] = system: Uricase from Candida sp., native; assay: Michaelis-Menten kinetics, uric acid oxidation, native uricase; assay type: biochemical; details: pH 8.5, 37° C.
Description: as §2, §4

[8] = system: Uricase from Candida sp., neutral initiator (N)-pCBMA; assay: Michaelis-Menten kinetics, uric acid oxidation, uricase (N)-pCBMA; assay type: biochemical; details: pH 8.5, 37° C.
Description: as §2
as §3, with “Uricase-initiator conjugates were dialyzed in 25 mM sodium phosphate (pH 7.0) using a 25 kDa molecular cutoff dialysis tube in a refrigerator for 24 hours and then lyophilized.” left out
as §5
as §4, with “Native, initiator and polymer conjugate solution (10 μL, 20 μM of Uricase) was added to the substrate solution.” left out

[9] = system: Uricase from Candida sp., positive initiator (+)-pSMA; assay: Michaelis-Menten kinetics, uric acid oxidation, uricase (+)-pSMA; assay type: biochemical; details: pH 8.5, 37° C.
Description: as §2
as §3, with “Uricase-initiator conjugates were dialyzed in 25 mM sodium phosphate (pH 7.0) using a 25 kDa molecular cutoff dialysis tube in a refrigerator for 24 hours and then lyophilized.” left out
as §5
as §4, with “Native, initiator and polymer conjugate solution (10 μL, 20 μM of Uricase) was added to the substrate solution.” left out

[10] = system: Uricase from Candida sp., neutral initiator (N)-pSMA; assay: Michaelis-Menten kinetics, uric acid oxidation, uricase (N)-pSMA; assay type: biochemical; details: pH 8.5, 37° C.
Description: as §2
as §3, with “Uricase-initiator conjugates were dialyzed in 25 mM sodium phosphate (pH 7.0) using a 25 kDa molecular cutoff dialysis tube in a refrigerator for 24 hours and then lyophilized.” left out
as §5
as §4, with “Native, initiator and polymer conjugate solution (10 μL, 20 μM of Uricase) was added to the substrate solution.” left out

[11] = system: T1, C[C@H](NC(=O)CCC(=O)O)C(=O)N[C@@H](C)C(=O)N1CCC[C@H]1C(=O)N[C@@H](Cc1ccccc1)C(=O)Nc1ccc([N+](=O)[O-])cc1; assay: Michaelis-Menten kinetics, Suc-AAPF-pNA hydrolysis, native CT; assay type: biochemical, bovine; details: other: pH 8, 37° C.
T1 construct: mature A, B and C chains of chymotrypsinogen A; unmodified
Description: as §2
CT: N-succinyl-Ala-Ala-Pro-Phe-p-nitroanilide (Suc-AAPF-pNA; SEQ ID NO:1) was used as a substrate for CT. Substrate (0-20 mg/mL in DMSO, 30 μL) was added to a 1.5 mL cuvette with sodium phosphate buffer (pH 8, 100 mM). Native CT, CT-initiators, and CT-polymers (0.1 mg/mL protein, 4 μM, 10 μL) was added to the cuvette with substrate and buffer. The initial substrate hydrolysis rate was measured in triplicate by recording the increase in absorbance at 412 nm over the first 60 seconds after mixing using a Lambda 2 Perkin Elmer ultraviolet-visible spectrometer equipped with a temperature-controlled cell holder at 37° C. Michaelis-Menten parameters were determined using nonlinear curve fitting of initial hydrolysis rate versus substrate concentration in GraphPad.
Michaelis-Menten kinetics were measured at pH 8 and 37° C. using Succinyl-Ala-Ala-Pro-Phe-p-nitroanilide (Suc-AAPF-pNA; SEQ ID NO:1), a hydrophobic and negatively charged substrate for CT that binds to the hydrophobic S1 binding pocket and is then cleaved by the catalytic triad (Ser 195, His 57, Asp 102). […] The observed decrease in KM upon neutral initiator attachment could have been the result of the hydrophobicity of the initiator. The partition coefficient (log D) of a lysine side chain at pH 8.0 is −1.00. After covalent attachment of the neutral initiator, the log D value of the new product rose to 1.82. […]

O=C(O)CCCC[C@@H]1SC[C@@H]2NC(=O)N[C@@H]21 [biotin]
increase in biotin binding rate compared to Avi-neutral initiator ([1]; Avi-positive initiator vs Avi-neutral initiator): 1.7 fold
biotin binding rate ([1]; avidin (+)): 1.69 ± 0.04 s⁻¹
biotin binding rate (avidin, native): 92.5 ± 14.1 s⁻¹
biotin binding rate [2]: 1.64 ± 0.08 s⁻¹
biotin binding rate [3]: 0.23 ± 0.07 s⁻¹

O=c1[nH]c(=O)c2[nH]c(=O)[nH]c2[nH]1 [uric acid]
Km [4]: 119 ± 9.7 µM
kcat [4]: 0.18 ± 0.01 s⁻¹
kcat/KM [4]: 2000 ± 600 M⁻¹ s⁻¹
Km [5]: 22 ± 7.6 µM
kcat [5]: 0.03 ± 0.003 s⁻¹
kcat/KM [5]: 1000 ± 500 M⁻¹ s⁻¹
Km [6]: 25.4 ± 1.4 µM
kcat [6]: 2.14 ± 0.04 s⁻¹
kcat/KM [6]: 84000 ± 5000 M⁻¹ s⁻¹
Km [7]: 12.9 ± 0.6 µM
kcat [7]: 3.42 ± 0.05 s⁻¹
kcat/KM [7]: 266000 ± 13000 M⁻¹ s⁻¹
KM [8]: undetectable
kcat [8]: undetectable
kcat/KM [8]: undetectable
KM [9]: undetectable
kcat [9]: undetectable
kcat/KM [9]: undetectable
KM [10]: undetectable
kcat [10]: undetectable
kcat/KM [10]: undetectable

α-chymotrypsin (CT) from bovine pancreas (type II), native (Bos taurus)
Km [11]: 107 ± 5 µM
kcat [11]: 26.6 ± 0.3 s⁻¹
kcat/Km [11]: 250000 ± 10000 M⁻¹ s⁻¹
